Target: Dopamine receptor (Homo sapiens) (UniProt P14416+P35462+P21918+P21917+P21728)
Conditions: Felis catus
Description: Inhibition of stimulation-induced tachycardia via the presynaptic dopamine receptors

Compound | ID50 [nM]
CCCN(CCC)[C@H]1Cc2cccc(O)c2C1 | 720
CCCN(CCC)[C@@H]1Cc2cccc(O)c2C1 | 7

Source: ChEMBL document CHEMBL1122983, “Synthesis and dopaminergic activity of (R)- and (S)-4-hydroxy-2-(di-n-propylamino)indan” (J Med Chem, 1985)
